Test results: patent US7763602B2, “Pyrrole derivatives as antimycobacterial compounds” (priority 2002, dated 2010)
Converted amounts (≈) assume the structure as drawn.

What was measured:
Format in all cases: cell-based, Mycobacterium tuberculosis
[1] = test system: M. tuberculosis H37Rv ATCC 27294; assay: In vitro growth inhibition assay, BACTEC 460 TB system; set-up: key: +: If ΔGI of test vial is less than that of the control vial the culture was sensitive to the test compound; details: final concentration 6.25 μg/ml
[2] = test system: M. tuberculosis 27294; assay: In vitro agar dilution assay (MIC), reference strain; details: for MIC (μg/ml) against M. tuberculosis-27294: Table I; for MIC: Mycobacterium tuberculosis, 27294, Table I, read-out: MIC (μg/ml) against M. tuberculosis-27294
[3] = test system: M. tuberculosis clinical isolates, sensitive; assay: microbe, parasite or virus in culture; details: for MIC (μg/ml) against Clinical isolates Sensitive: Table I, agar dilution; for MIC: Mycobacterium tuberculosis, read-out: MIC (μg/ml) against Clinical isolates Sensitive

Compound	Growth inhibition of M. tuberculosis 27294 [1]	MIC (μg/ml) against M. tuberculosis-27294 [2]	MIC (μg/ml) against Clinical isolates Sensitive [3]	MIC [2]	MIC [3]
Cc1c(CN2CCN(c3ccccn3)CC2)cc(-c2ccccc2)n1NC(=O)c1ccncc1 [compound 14, N-(3-{[4-(2-pyridyl)piperazinyl]methyl}-2-methyl-5-phenylpyrrolyl)-4-pyridylcarboxamide]	+	4.0 µg/mL (≈ 8.84 µM)	4.0 to 8.0 µg/mL		
Cc1c(CN2CCN(c3ccc(F)cc3)CC2)cc(-c2ccccc2)n1NC(=O)c1cnccn1 [compound 25, N-(3-{[4-(4-fluorophenyl)piperazinyl]methyl}-2-methyl-5-phenylpyrrolyl)pyrazin-2-ylcarboxamide]	+	2.0 µg/mL (≈ 4.25 µM)	2.0 to 4.0 µg/mL		
Cc1c(CN2CCN(c3ccc(F)cc3)CC2)cc(-c2ccccc2)n1NC(=O)c1ccncc1 [compound 11, N-(3-{[4-(4-fluorophenyl)piperazinyl]methyl}-2-methyl-5-phenylpyrrolyl)-4-pyridylcarboxamide]	+	1.0 µg/mL (≈ 2.13 µM)	0.5 to 1.0 µg/mL		
Cc1c(CN2CCN(Cc3ccc4c(c3)OCO4)CC2)cc(-c2ccc(Cl)cc2)n1-c1cccc2ccccc12 [compound 62, 5-[(4-{[5-(4-chlorophenyl)-2-methyl-1-naphthylpyrrol-3-yl]methyl}-piperazinyl)methyl]-2H-benzo[d]1,3-dioxolane]	+	>16.0 µg/mL	>16.0 µg/mL		
Cc1c(CN2CCN(c3ccc(F)cc3)CC2)cc(-c2ccc(Cl)cc2)n1-c1ccc(F)cc1F [compound 44, 1-{[1-(2,4-difluorophenyl)-5-(4-chlorophenyl)-2-methylpyrrol-3-yl]methyl}-4-(4-fluorophenyl)piperazine]	+			1 µg/mL (≈ 2.02 µM)	1 to 2 µg/mL (≈ 2.02 to 4.03 µM)
COc1ccccc1N1CCN(Cc2cc(-c3ccc(Cl)cc3)n(-c3ccc(F)cc3F)c2C)CC1 [compound 45, 1-{[1-(2,4-difluorophenyl)-5-(4-chlorophenyl)-2-methylpyrrol-3-yl]methyl}-4-(2-methoxyphenyl)piperazine]	+			0.5 µg/mL (≈ 0.984 µM)	0.5 to 2 µg/mL (≈ 0.984 to 3.94 µM)
Cc1c(CN2CCN(c3cccc(C(F)(F)F)c3)CC2)cc(-c2ccc(Cl)cc2)n1-c1cccc2ccccc12 [compound 60, 1-{[5-(4-chlorophenyl)-2-methyl-1-naphthylpyrrol-3-yl]methyl}-4-(3-trifluoromethylphenyl)piperazine]	+	4.0 µg/mL (≈ 7.14 µM)	2.0 to 8.0 µg/mL		
Cc1c(CN2CCN(Cc3ccc4c(c3)OCO4)CC2)cc(-c2ccc(Cl)cc2)n1-c1ccc(F)cc1F [compound 50, 5-[(4-{[1-(2,4-difluorophenyl)-5-(4-chlorophenyl)-2-methylpyrrol-3-yl]-methyl}-piperazinyl)methyl]-2H-benzo[d]1,3-dioxolane]	+	2.0 µg/mL (≈ 3.73 µM)	2.0 to 4.0 µg/mL		
Cc1c(CN2CCN(c3ccccn3)CC2)cc(-c2ccc(Cl)cc2)n1-c1ccc(Cl)cc1 [compound 4, 1-{[1,5-bis(4-chlorophenyl)-2-methylpyrrol-3-yl]methyl}-4-(2-pyridyl) piperazine]	+			0.5 µg/mL (≈ 1.05 µM)	0.25 to 1 µg/mL (≈ 0.524 to 2.09 µM)
Cc1c(CN2CCN(c3ccccn3)CC2)cc(-c2ccc(Cl)cc2)n1-c1cccc2ccccc12 [compound 61, 1-{[5-(4-chlorophenyl)-2-methyl-1-naphthylpyrrol-3-yl]methyl}-4-(2-pyridyl) piperazine]	+	4.0 µg/mL (≈ 8.11 µM)	4.0 to 8.0 µg/mL		
Cc1c(CN2CCN(C(c3ccccc3)c3ccccc3)CC2)cc(-c2ccc(Cl)cc2)n1-c1ccc(F)cc1F [compound 48, 1-{[1-(2,4-difluorophenyl)-5-(4-chlorophenyl)-2-methylpyrrol-3-yl]methyl}-4-(4-diphenylmethyl)piperazine]	+	>16.0 µg/mL	>16.0 µg/mL		
COc1ccccc1N1CCN(Cc2cc(-c3ccccc3)n(-c3ccc(F)cc3F)c2C)CC1 [compound 52, 1-{[1-(2,4-difluorophenyl)-2-methyl-5-phenylpyrrol-3-yl]methyl}-4-(2-methoxyphenyl)piperazine]	+			8 µg/mL (≈ 16.9 µM)	8 µg/mL (≈ 16.9 µM)
Cc1cc(CN2CCN(c3cccc(C(F)(F)F)c3)CC2)c(-c2ccccc2)n1-c1ccc(F)cc1F [compound 57, 1-{[1-(2,4-difluorophenyl)-5-methyl-2-phenylpyrrol-3-yl]methyl}-4-(3-trifluoromethylphenyl)piperazine]	+			> 16 µg/mL	> 16 µg/mL
CO[C@H]1/C=C/O[C@@]2(C)Oc3c(C)c(O)c4c(O)c(c(/C=N/N5CCN(C)CC5)c(O)c4c3C2=O)NC(=O)/C(C)=C\C=C\[C@H](C)[C@H](O)[C@@H](C)[C@@H](O)[C@@H](C)[C@H](OC(C)=O)[C@@H]1C [Rifampicin, reference compound]	+			0.25 µg/mL (≈ 0.304 µM)	0.25 µg/mL (≈ 0.304 µM)
Cc1c(CN2CCN(c3ccccn3)CC2)cc(-c2ccc(Cl)cc2)n1-c1ccc(F)cc1F [compound 47, 1-{[1-(2,4-difluorophenyl)-5-(4-chlorophenyl)-2-methylpyrrol-3-yl]methyl}-4-(2-pyridyl)piperazine]	+			0.25 µg/mL (≈ 0.522 µM)	0.25 to 1 µg/mL (≈ 0.522 to 2.09 µM)
COc1ccccc1N1CCN(Cc2cc(-c3ccccc3)n(NC(=O)c3cnccn3)c2C)CC1 [compound 26, N-(3-{[4-(2-methoxyphenyl)piperazinyl]methyl}-2-methyl-5-phenylpyrrolyl) pyrazin-2-ylcarboxamide]	+	1.0 µg/mL (≈ 2.07 µM)	2.0 µg/mL (≈ 4.14 µM)		
Cc1c(CN2CCN(c3ccc(F)cc3)CC2)cc(-c2ccc(Cl)cc2)n1-c1ccc(Cl)cc1 [Compound No. 1, 1-{[1,5-bis(4-chlorophenyl)-2-methylpyrrol-3-yl]methyl}-4-(4-fluorophenyl) piperazine]	+			0.5 µg/mL (≈ 1.01 µM)	0.5 to 2 µg/mL (≈ 1.01 to 4.04 µM)
Cc1c(CN2CCN(Cc3ccc4c(c3)OCO4)CC2)cc(-c2ccc(Cl)cc2)n1-c1ccc(Cl)cc1 [Compound No. 8, 5-[(4-{[1,5-bis(4-chlorophenyl)-2-methylpyrrol-3-yl]methyl}piperazinyl)methyl]-2H-benzo[d]1,3-dioxolane]	+	1.0 µg/mL (≈ 1.87 µM)	0.5 to 1.0 µg/mL		
Cc1c(CN2CCN(Cc3ccc4c(c3)OCO4)CC2)cc(-c2ccccc2)n1NC(=O)c1cnccn1 [compound 29, N-(3-{[4-(2H-benzo[d]1,3-dioxolen-5-ylmethyl)piperazinyl]methyl}-2-methyl-5-phenylpyrrolyl)pyrazin-2-ylcarboxamide]	+	>16.0 µg/mL	>16.0 µg/mL		
Cc1c(CN2CCN(c3cccc(C(F)(F)F)c3)CC2)cc(-c2ccc(Cl)cc2)n1-c1ccc(F)cc1F [compound 46, 1-{[1-(2,4-difluorophenyl)-5-(4-chlorophenyl)-2-methylpyrrol-3-yl]methyl}-4-(3-trifluoromethylphenyl)piperazine]	+			2 µg/mL (≈ 3.66 µM)	2 to 4 µg/mL (≈ 3.66 to 7.33 µM)
Cc1c(CN2CCS(=O)(=O)CC2)cc(-c2ccccc2)n1-c1ccccc1 [compound 88]	+	0.5 µg/mL (≈ 1.31 µM)	1.0 to 4.0 µg/mL		
COc1ccccc1N1CCN(Cc2cc(C)n(NC(=O)c3cnccn3)c2-c2ccc(Cl)cc2)CC1 [compound 42, N-(2-(4-chlorophenyl)-3-{[4-(2-methoxyphenyl)piperazinyl]methyl}-5-methylpyrrolyl)pyrazin-2-ylcarboxamide]	+	8.0 µg/mL (≈ 15.5 µM)	8.0 µg/mL (≈ 15.5 µM)		
Cc1cc(CN2CCN(c3cccc(C(F)(F)F)c3)CC2)c(-c2ccccc2)n1NC(=O)c1cnccn1 [compound 33, N-(3-{[4-(3-trifluoromethylphenyl)piperazinyl]methyl}-5-methyl-2-phenylpyrrolyl)pyrazin-2-ylcarboxamide]	+	2.0 µg/mL (≈ 3.84 µM)	2.0 to 8.0 µg/mL		
Cc1cc(CN2CCN(C(c3ccccc3)c3ccccc3)CC2)c(-c2ccccc2)n1NC(=O)c1cnccn1 [compound 36, N-(3-{[4-(diphenylmethyl)piperazinyl]methyl}-5-methyl-2-phenylpyrrolyl) pyrazin-2-ylcarboxamide]	+	0.5 µg/mL (≈ 0.921 µM)	0.5 to 1.0 µg/mL		
Cc1c(CN2CCN(Cc3ccc4c(c3)OCO4)CC2)cc(-c2ccccc2)n1NC(=O)c1ccncc1 [compound 17, N-(3-{[4-(2H-benzo[d]1,3-dioxolan-5-ylmethyl)piperazinyl]methyl}-2-methyl-5-phenylpyrrolyl)-4-pyridylcarboxamide]	+	2.0 µg/mL (≈ 3.92 µM)	2.0 to 4.0 µg/mL		
